Laboratory results as given in EP2527351B1, “Lipophosphonoxins, method of their preparation and use” (priority 2011, dated 2012).
≈ marks a conversion by molar mass, not a printed value.

Columns and labels:
S.agalactiae = test: Microdilution MIC, reference strain; conditions: read after 24/48 hours at 37°C
Method: (§2) Antimicrobial activity is assessed using the standard microdilution method determining the minimum inhibitory concentration (MIC) of the tested samples leading to inhibition of bacterial growth. Disposable microtitration plates are used for the tests. The samples were diluted in brain heart infusion broth (Himedia, Laboraties Pvt. Ltd., ? eská republika) and Mueller-Hinton broth (HiMedia Laboraties, see above) to yield a concentration range between 200 µg/ml and 1.5625 µg/ml. The plates are inoculated with a standard amount of the tested microbe - the inoculum density in each well is equal to 10^5-6 CFU/ml. The MIC is read after 24/48 hours of incubation at 37°C as the minimum inhibitory concentration of the tested substance that inhibits the growth of the bacterial strains.
(§3) Standard reference bacterial strains (E. faecalis CCM 4224, S. aureus CCM 4223) from the Czech Collection of Microorganisms (CCM), Faculty of Science, Masaryk University Brno, S. agalactiae, B. subtilis, methicilin-resistant S. aureus 4591, fluoroquinolone-resistant S. haemolyticus 16568, vancomycin-resistant E. faecium VanA419/ana and methicilin-resistant S. epidermidis 8700/B strains obtained from the Teaching Hospital Olomouc were used. All tested microorganisms were stored in cryotubes (ITEST plus, Czech Republic) at -80°C.

B. subtilis = test: Microdilution MIC, reference strain; conditions: read after 24/48 hours at 37°C
Method: as §2, §3

E. faecalis CCM 4224 = test: Microdilution MIC, reference strain; conditions: read after 24/48 hours at 37°C
Method: as §2, §3

[1] = test system: normal human erythroid progenitor cells; test: CytoTox-ONE Homogeneous Membrane Integrity Assay (LDH release); assay type: cell-based; conditions: cytotoxicity, CytoToxOne, after 4 hours
Method: Human immature erythroid progenitors isolated from umbilical cord blood are cultivated in the StemSpan serum-free medium (StemCell Technologies) in the presence of the stem cell factor (SCF, 100 ng/ml), erythropoetin (EPO, 33.34 nkat/ml) and dexamethasone (1 µmol.l^-1) (Panzenbock et al. 1998). Cells are plated at 25000 cells/well/20 µl in 384-well plates immediately before addition of lipophosphonoxine compound from particular examples. After 48 hours of incubation at 37 °C in 5% CO2 viability is determined by using the commercial CellTiter-Blue® Cell Viability Assay (Promega, Cat.# G8082). […] After an incubation step, data are recorded.
Cytotoxicity is determined after 4 hours at 37 °C in 5% CO2 using commercial CytoTox-ONE™ Homogeneous Membrane Integrity Assay (Promega, Cat.# G7892), a fluorometric method for estimating the number of non-viable cells present in multiwell plates. […] LDH released into the culture medium is measured with a 10-minute coupled enzymatic assay that results in the conversion of resazurin into a fluorescent resorufin product. The amount of fluorescence produced is proportional to the number of lysed cells.
(§1) The fluorescence intensity is measured using the EnVision plate reader (PerkinElmer). Data are analyzed using GraphPad Prism 5.0 statistical software.

[2] = test system: normal erythroid progenitor cells; test: CellTiter-Blue Cell Viability Assay; assay type: cell-based, Human; conditions: 48 hours of incubation
Method: Human immature erythroid progenitors isolated from umbilical cord blood are cultivated in the StemSpan serum-free medium (StemCell Technologies) in the presence of the stem cell factor (SCF, 100 ng/ml), erythropoetin (EPO, 33.34 nkat/ml) and dexamethasone (1 µmol.l^-1) (Panzenbock et al. 1998). Cells are plated at 25000 cells/well/20 µl in 384-well plates immediately before addition of lipophosphonoxine compound from particular examples. After 48 hours of incubation at 37 °C in 5% CO2 viability is determined by using the commercial CellTiter-Blue® Cell Viability Assay (Promega, Cat.# G8082). The assay is based on the ability of living cells to convert a redox dye (resazurin) into a fluorescent end product (resorufin). […] The homogeneous assay procedure involves adding the single reagent directly to cells cultured in serum-supplemented medium. After an incubation step, data are recorded.
as §1

S. haemolyticus 16568 = test: Microdilution MIC, resistant strain; conditions: fluoroquinolone-resistant strain, 24/48 hours at 37°C
Method: as §2
(§4) Standard reference bacterial strains (E. faecalis CCM 4224, S. aureus CCM 4223) from the Czech Collection of Microorganisms (CCM), Faculty of Science, Masaryk University Brno, S. agalactiae, B. subtilis, methicilin-resistant S. aureus 4591, fluoroquinolone-resistant S. haemolyticus 16568, vancomycin-resistant E. faecium VanA419/ana and methicilin-resistant S. epidermidis 8700/B strains obtained from the Teaching Hospital Olomouc were used. All tested microorganisms were stored in cryotubes (ITEST plus, Czech Republic) at -80°C. […]

S. epidermidis 8700/B = test: Microdilution MIC, resistant strain; conditions: methicilin-resistant strain, 24/48 hours at 37°C
Method: as §2, §4

S. aureus MRSA 4591 = test: Microdilution MIC, resistant strain; conditions: methicilin-resistant strain, 24/48 hours at 37°C
Method: as §2, §4

E. faecium VanA 419/ana = test: Microdilution MIC, resistant strain; conditions: vancomycin-resistant strain, 24/48 hours at 37°C
Method: as §2, §4

cyst formation = conditions: cited from earlier work
[3] = test system: Giardia trophozoite growth; conditions: cited from earlier work
[4] = test system: Mycobacterium tuberculosis strains; conditions: drug-susceptible strains, in vitro; cited from earlier work
mice = conditions: mouse, in vivo; cited from earlier work

Compound	MIC S.agalactiae (S.agalactiae)	MIC B. subtilis (B. subtilis)	MIC E. faecalis CCM 4224 (E. faecalis CCM 4224)	IC50 [2] [µg/mL]	[Max. safety concentration] [2] [µg/mL]	MIC S. epidermidis 8700/B (S. epidermidis 8700/B)	MIC E. faecium VanA 419/ana (E. faecium VanA 419/ana)	other results
CCCCCCCCCCCCCCOP(=O)(CCN1C[C@@H](O)[C@H](O)C1)OC[C@H]1O[C@@H](n2ccc(=O)[nH]c2=O)[C@H](O)[C@@H]1O (stereo partly drawn) [Example 17, Tetradecyl uridin-5'-yl 2-([3R,4R]-3,4-dihydroxypyrrolidin-l-N-yl)ethylphosphonate]	6,25 µg/ml	6,25 µg/ml	12,5 µg/ml	47 (≈ 74.2 µM)	31	12,5 µg/ml	12,5 µg/ml	EC50 [1]: 302 µg/mL (≈ 477 µM); [Max. safety concentration] [1]: 125 µg/mL; MIC S. haemolyticus 16568 (S. haemolyticus 16568): 12,5 µg/ml; MIC S. aureus MRSA 4591 (S. aureus MRSA 4591): 25 µg/mL (≈ 39.4 µM)
O=c1ccn([C@@H]2O[C@H](COP(=O)(O)CCN3C[C@@H](O)[C@H](O)C3)[C@@H](O)[C@H]2O)c(=O)[nH]1 [phosphonoxin]								cyst formation (cyst formation): did not specifically inhibit; vegetative growth [3]: potently inhibited
Hexadecyloxypropyl uridin-5'-yl 2-([3R,4S,5S]-3,4-trihydroxypiperidin-1-N-yl)ethyl-phosphonate [Example 12]	12,5 µg/ml			141	62			
Hexadecyloxypropyl uridin-5'-yl 2-([3R,5R]-3,4-dihydroxypiperidin-1-N-yl)ethyl-phosphonate [Example 11]	6,25 µg/ml	6,25 µg/ml	12,5 µg/ml	40	31	6,25 µg/ml	6,25 µg/ml	
Hexadecyloxypropyl uridin-5'-yl 2-([3R,5R]-3,4-dihydroxypiperidin-1-N-yl)ethylphosphonate [Example 13]	6,25 µg/ml			45	15			
caprazamycins [CPZs]								MIC [4]: 3.13 µg/mL; toxicity in mice (mice): no significant toxicity
